Test results: patent EP0960886B1, “Peptide T and related peptides in the treatment of inflammation, including multiple sclerosis” (priority 1992, dated 1993)

How the values were obtained:
[1] = Treatment of multiple sclerosis patients, case reports (Examples 1 to 4); type: in vivo, human
Procedure: […] They were treated with prednisone and later with physiotherapy, with little effect. […] Tone was increased in both lower limbs and they had bilateral ankle clonus. Deep tendon reflexes were 2+ in the arms, 3+ in both knees and ankles and the plantar responses were extensor.
They were started on Peptide T, 8.5 mg subcutaneously daily. […] Their frequency of nocturia was reduced, fine motor control improved, stuttering decreased, their legs were less spastic and they could stand with minimal support. […] The patient has remained stable rather than following their normal progressive downhill course for the months they have remained on Peptide T.
A person was diagnosed with optic neuritis secondary to multiple sclerosis after presenting with numbness, impaired motor function, and blurred vision (20/300 bilaterally). Their somatic neurological examination was within normal limits. Minor episodes of numbness and impaired speech, balance and co-ordination had occurred over 6 months, as well as headache and loss of vision.
Peptide T therapy was started.
A person with their first episode of multiple sclerosis as manifest by optic neuritis and complete blindness in the right eye for 2 weeks, numbness in their right leg and then both legs. […] They had worsening of their ataxias with blurred vision and oscillopsia and was given prednisone 80 mg per day. […] Findings were typical of demyelination consistent with MS. […] The tone was increased in their lower limbs and they had non-sustained ankle clonus bilaterally. Their knee jerk was increased on the right compared to the left. Plantar responses were both upgoing. They had decreased position, vibration, light touch and cold sensation in the feet compared to the hands.
About 2 months later the patient was started on Peptide T 8.5 mg subcutaneously daily. […] They experienced improved feelings in their fingers, fine movements of their hands and improved cognitive function.
A person with a history of dizziness, ataxia, episodes of vertigo, impairment of motor function and generalised weakness of the legs was treated with dilantin and admitted to hospital. […] They were reassessed about 2 years later for episodes of dizziness, and complaints of leg spasms. […] Plantar response was downgoing and they had upwards gaze vertical nystagmus as previously noted.

PBMC [2] = assay: Mitogen induced proliferation of PBMC, 3H thymidine uptake, 6 day culture (Example 8); type: cell-based, human
Procedure: PBMC (10^5) were cultured in 200 µl RPMI containing 10% heat inactivated foetal bovine serum, 2 mM L-glutamine and gentamycin 100 µg/ml with mitogen and Peptide T added on the first day of culture. Growth was assessed in triplicate by ^3H thymidine uptake following a 6 day incubation and expressed as a proliferation index (cpm in presence of mitogen ± Peptide T […] cpm in absence of stimulation). A proliferation index >1.00 implies growth beyond that in media alone. At physiologically obtainable concentrations, Peptide T inhibits proliferation of normal (HIV seronegative) peripheral blood mononuclear cells (PBMC) without causing significant cytotoxicity as shown in Table III. This effect is long term in that Peptide T given on the first day of a six day culture will inhibit mitogen induced proliferation.

allogeneic PBMC = assay: Two way MLR (Example 9); type: cell-based, human; conditions: without Peptide T 1365 ± 335
Procedure: A two way MLR was performed using 10^5 allogeneic PBMC (cpm of A = 142 ± 86, B = 148 ± 84) cocultured in 200 µl of media as described in Table III.
Peptide T given on the first day of an MLR will inhibit allogeneic induced proliferation of PBMC (Table IV).

p56^lck = assay: lck specific tyrosine kinase assay (autophosphorylation) in PBL blasts (Example 10); type: cell-based; set-up: key: ++++: highly active; +: slightly active; conditions: Unstimulated PBL blasts; Peptide T 10^-9 M for 2 hours; without P.T. +++
Procedure: PBL (peripheral blood leukocyte) blasts were prepared by incubating PBMC at 37°C with PHA (10 µg/ml) in RPMI + 10% FBS for 48 hours followed by addition of interleukin-2 and incubation for a subsequent 96 hours. Cells were washed free of IL-2 and incubated for 24 hours then washed free of FBS and incubated for 24 hours. PBL blasts remained either […] or were. treated with OKT4A (anti-CD4) at 10 µg/ml for 1 hour followed by rat anti-mouse Ig at 5 µg/ml for 5 minutes to enhance lck activity. PBL blasts were pretreated with Peptide T (10^-9 M) for 2 hours, then washed extensively before anti-CD4 stimulation. Following immunoprecipitation with anti-lck-Protein A conjugates and incubation (37°C, 10 minutes) with ^32P-ATP, p56^lck autophosphorylation was determined by autoradiography and used as a measure of p56^lck activity.
Peptide T will inhibit the PHA-induced activation and anti-CD4 dependent enhancement of p56^lck activity as we have determined (Table V) by an lck specific tyrosine kinase assay. p56^lck is a CD4 associated tyrosine kinase involved in T cell activation and transmembrane signalling (Janeway C.A. Ann. Rev. Immunol. 10 645-674 (1992)). […]

PBMC [3] = type: cell-based, human
Jurkat = assay: Growth of spontaneously proliferating cell line Jurkat; type: cell-based; conditions: p56^lck positive human T cell line
Excerpt: Molt-4 is a human T lymphoma cell line, p56^lck negative, and Jurkat is a human T cell line, p56^lck positive, that will grow spontaneously in the absence of exogenous stimuli.

[4] = system: mouse foetal hippocampal neurons; conditions: cited from earlier work
gp120 = conditions: rat hippocampal membranes; cited from earlier work

Q: Which “intellectual and motor functioning” value ([1]; Example 1: person with MS, 8.5 mg subcutaneously daily, within a few weeks, sustained over 6 months) does the source give for `C[C@@H](N)C(=O)N[C@@H](CO)C(=O)N[C@H](C(=O)N[C@H](C(=O)N[C@H](C(=O)N[C@@H](CC(N)=O)C(=O)N[C@@H](Cc1ccc(O)cc1)C(=O)N[C@H](C(N)=O)[C@@H](C)O)[C@@H](C)O)[C@@H](C)O)[C@@H](C)O` [Peptide T, D-Ala-Ser-Thr-Thr-Thr-Asn-Tyr-Thr-NH2] here?
A: marked symptomatic improvement

Q: And the visual acuity bilaterally ([1]; Example 2: person, optic neuritis secondary to MS, six days after start, before therapy 20/300 bilaterally)?
A: 21/30

Q: And the “fatigue, ataxia and fine motor function after restarting” value ([1]; Example 3: after stopping and restarting Peptide T)?
A: remarkable improvement

Q: What about the “patient-reported symptoms after start of therapy” value ([1]; Example 3: person with MS, 8.5 mg subcutaneously daily, within 1 to 2 weeks) of the same molecule?
A: subjective improvement

Q: What about the patient-reported symptoms ([1]; Example 4: person, 8.5 mg subcutaneously daily, within 10 days) of the same molecule?
A: increased energy and intellectual function, and improved vision

Q: And the “Proliferation Index ± SD” value (PBMC [2]; ConA 25 µg/ml, Peptide T 10^-5 mol/l, without Peptide T 4.55±0.66)?
A: 2.72±1.20

Q: And the “Proliferation Index ± SD” value (PBMC [2]; ConA 25 µg/ml, Peptide T 10^-7 mol/l, without Peptide T 4.55±0.66)?
A: 3.19±0.06

Q: And the “Proliferation Index ± SD” value (PBMC [2]; ConA 25 µg/ml, Peptide T 10^-9 mol/l, without Peptide T 4.55±0.66)?
A: 1.98±0.04

Q: What about the “Proliferation Index ± SD” value (PBMC [2]; ConA 25 µg/ml, Peptide T 10^-12 mol/l, without Peptide T 4.55±0.66) of the same molecule?
A: 1.69±0.48

Q: And the “Proliferation Index ± SD” value (PBMC [2]; Media (absence of mitogens), Peptide T 10^-5 mol/l)?
A: 1.14±0.15

Q: And the “Proliferation Index ± SD” value (PBMC [2]; Media (absence of mitogens), Peptide T 10^-7 mol/l)?
A: 0.73±0.16

Q: And the “Proliferation Index ± SD” value (PBMC [2]; Media (absence of mitogens), Peptide T 10^-9 mol/l)?
A: 2.17±1.10

Q: And the “Proliferation Index ± SD” value (PBMC [2]; Media (absence of mitogens), Peptide T 10^-12 mol/l)?
A: 1.52±0.15

Q: What about the “Proliferation Index ± SD” value (PBMC [2]; PHA 25 µg/ml, Peptide T 10^-5 mol/l, without Peptide T 317.0±41.0) of the same molecule?
A: 149.0±38.4

Q: And the “Proliferation Index ± SD” value (PBMC [2]; PHA 25 µg/ml, Peptide T 10^-7 mol/l, without Peptide T 317.0±41.0)?
A: 123.6±18.1

Q: What about the “Proliferation Index ± SD” value (PBMC [2]; PHA 25 µg/ml, Peptide T 10^-9 mol/l, without Peptide T 317.0±41.0) of the same molecule?
A: 78.6±23.1

Q: What about the “Proliferation Index ± SD” value (PBMC [2]; PHA 25 µg/ml, Peptide T 10^-12 mol/l, without Peptide T 317.0±41.0) of the same molecule?
A: 103.8±22.8

Q: What about the “Proliferation Index ± SD” value (PBMC [2]; PWM 25 µg/ml, Peptide T 10^-7 mol/l, without Peptide T 7.47±0.50) of the same molecule?
A: 4.47±0.36

Q: What about the “Proliferation Index ± SD” value (PBMC [2]; PWM 25 µg/ml, Peptide T 10^-9 mol/l, without Peptide T 7.47±0.50) of the same molecule?
A: 4.69±0.42

Q: And the “Proliferation Index ± SD” value (PBMC [2]; PWM 25 µg/ml, Peptide T 10^-12 mol/l, without Peptide T 7.47±0.50)?
A: 4.15±0.23

Q: What about the “cpm ± SD” value (allogeneic PBMC; Peptide T 10^-0 mol/l) of the same molecule?
A: 764 ± 77 cpm

Q: And the “cpm ± SD” value (allogeneic PBMC; Peptide T 10^-5 mol/l)?
A: 649 ± 263 cpm

Q: What about the “cpm ± SD” value (allogeneic PBMC; Peptide T 10^-7 mol/l) of the same molecule?
A: 534 ± 108 cpm

Q: What about the “cpm ± SD” value (allogeneic PBMC; Peptide T 10^-11 mol/l) of the same molecule?
A: 681 ± 222 cpm

Q: What about the “cpm ± SD” value (allogeneic PBMC; Peptide T 10^-13 mol/l) of the same molecule?
A: 235 ± 4 cpm

Q: And the “cpm ± SD” value (allogeneic PBMC; Peptide T 10^-15 mol/l)?
A: 371 ± 117 cpm

Q: What about the “cpm ± SD” value (allogeneic PBMC; Peptide T 10^-17 mol/l) of the same molecule?
A: 672 ± 261 cpm

Q: What about the “activity of p56^lck” value (p56^lck) of the same molecule?
A: +

Q: What about the “lymphocytes responding to recall antigen (MMR), antibodies to CD3 or the superantigens SEB and TSST-1” value (PBMC [3]) of the same molecule?
A: negligible effects

Q: What about the “growth of Jurkat cell line” value (Jurkat) of the same molecule?
A: did not significantly affect

Q: What about the “neurotoxicity of CSF from a patient with AIDS dementia” value ([4]; CSF at 1:100,000 dilution, 44-49% killing without peptide) of the same molecule?
A: inhibited

Q: What about the gp120-induced neurotoxicity ([4]; cultures of mouse foetal hippocampal neurons) of the same molecule?
A: completely, antagonised

Q: And the “concentrations that inhibit the binding of radiolabelled gp120” value (gp120)?
A: 0.1 nM
